Reference: patent US9096646B2, “CXCR4 receptor compounds” (priority 2008, dated 2015)
“And” between values parts separate entries of the source, which are not always exact repeats. Identical values can stand only once. Like-named read-outs stand apart in the source and are kept apart here. Each block holds one compound with its values, some of them ahead of it. Square brackets hold non-standard residues; d marks the D form. Ends that are not written are not given here. Peptide text beside a SMILES is read from it. * marks the point of attachment. ξ: configuration not given here. Biotin = O=C1N[C@H]2[C@H](CS[C@H]2CCCCC(=O)*)N1; ξGly(nC16H33) = CCCCCCCCCCCCCCCCC(N)C(=O)O; Palmitoyl = CCCCCCCCCCCCCCCC(=O)*; NHhexadecyl = CCCCCCCCCCCCCCCCN*; Myristoyl = CCCCCCCCCCCCCC(=O)*

Molecular target: CXCR4 (Homo sapiens, UniProt P61073)
Sequence (P61073 whole entry): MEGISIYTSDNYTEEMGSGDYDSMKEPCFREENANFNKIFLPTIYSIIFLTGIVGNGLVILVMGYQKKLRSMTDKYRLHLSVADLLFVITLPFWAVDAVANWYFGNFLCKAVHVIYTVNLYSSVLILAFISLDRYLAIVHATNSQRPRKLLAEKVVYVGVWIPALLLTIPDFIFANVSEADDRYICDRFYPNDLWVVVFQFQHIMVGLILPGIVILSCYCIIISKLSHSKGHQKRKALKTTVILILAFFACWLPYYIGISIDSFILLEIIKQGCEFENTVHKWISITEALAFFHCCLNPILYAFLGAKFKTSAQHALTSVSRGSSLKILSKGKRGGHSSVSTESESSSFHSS
Assay: Chemotaxis assay, effect on SDF1-a (CXCL12) induced migration of CCRF-CEM cells
Format: cell-based
Set-up: a human T-cell ALL line that endogenously expresses CXCR4; endogenous in cells; host or cells: CCRF-CEM (human T-cell ALL line)
Conditions: CEM cells; for activity at 1 µM / activity at 0.01 µM / activity at 0.03 µM / activity at 0.1 µM / activity at 0.3 µM / activity at 3 µM: CCRF-CEM
[1] = Table 18, i1 loop, drug conc 1.0 uM
[2] = Table 18, i1 loop, drug conc 1.0 uM, read-out: AUC (% of)
[3] = Table 18, i1 loop, drug conc 1.0 uM, read-out: Max (% of)
[4] = Table 20, i3 loop, conc 1.0 uM, read-out: AUC (% of vehicle)
[5] = Table 20, i3 loop, conc 1.0 uM, read-out: Max (% of vehicle)
[6] = Table 20, i3 loop, conc 1.0 uM, peak test compound/peak control

Source text: Chemotaxis assays were utilized to determine the effect of compound on the directed migration of cells in response to chemokine. Cells that express a receptor of interest were placed in the upper chamber of a Transwell chemotaxis plate (Corning) and allowed to migrate through a polycarbonate membrane to a lower chamber containing the appropriate receptor-specific ligand. To test for antagonist or potentiating activity, cells were mixed with the desired concentration of compound prior to addition to the upper chamber. Conversely, agonist activity was determined by adding compound in the bottom chamber only without endogenous chemokine. The effect of compound is quantified by several parameters, including the extent of maximum response, the shift of agonist dose-response curves, and the area under the curve.
To measure the CXCR4-dependent migration of cells, the appropriate concentration of CXCL12 (SDF1a) or test compound was diluted in phenol red-free RMPI-1640/20 mM HEPES/0.5% BSA buffer and placed in the bottom chamber of a transwell apparatus. CCRF-CEM cells, a human T-cell ALL line that endogenously expresses CXCR4, were washed twice in buffer and resuspended at 133,000 cells/ml. A 75 μl sample of this suspension is mixed with the test compound of interest and placed in the upper chamber of a 5-micron transwell apparatus.
To initiate cell migration, the assembled transwell plate was placed in a 37° C., 0.5% CO2 incubator for a specified time interval, typically between 30 and 120 minutes. After incubation, the unit was disassembled and the lower chamber placed at −80° C. overnight to facilitate lysis of cells. To quantify migrated cells, plates were thawed at 37° C. in a humidified chamber, and then a sample volume was removed from each well and mixed with an equal volume of CyQuant (Invitrogen) working solution in opaque plates. The fluorescence intensity of each well represents the DNA content and is directly proportional to cell number. […] The plate background control, which included no cells in the upper chamber, was subtracted from all values.

Compound: 53 (MGYQKKLRSMTDKYRLHL; not fully specified) [Compound 53]
AUC (% of) [1]: 60.98 % of and 91.1 % of
Max (% of) [1]: 68.45 % of and 89.56 % of

AUC (% of vehicle) (Table 20, i3 loop, conc 1.0 uM): 37.55 % of vehicle
Max (% of vehicle) (Table 20, i3 loop, conc 1.0 uM): 59.71 % of vehicle
Compound: 89: CXCR4 i3 loop compound (KLSHSKGHQKRKALKTTVIL) [Compound 89]

AUC (% of vehicle) (Table 20, i3 loop, conc 1.0 uM): 34.22 % of vehicle
Max (% of vehicle) (Table 20, i3 loop, conc 1.0 uM): 63.12 % of vehicle
Compound: 96: CXCR4 i3 loop compound (SHSKGHQKRKALK; also: lipid Pal, place not given here) [Compound 96]

AUC (% of vehicle) (Table 20, i3 loop, conc 1.0 uM): 75.55 % of vehicle
Max (% of vehicle) (Table 20, i3 loop, conc 1.0 uM): 74.92 % of vehicle
Compound: 101: CXCR4 i3 loop compound (SKLSHSKGHQKRKALK) [Compound 101]

AUC (% of vehicle) (Table 20, i3 loop, conc 1.0 uM): 0 % of vehicle
Max (% of vehicle) (Table 20, i3 loop, conc 1.0 uM): 0.24 % of vehicle
Compound: 102: CXCR4 i3 loop compound (IIISKLSHSKGHQKRKALKT) [Compound 102]

AUC (% of vehicle) (Table 20, i3 loop, conc 1.0 uM): 26.32 % of vehicle
Max (% of vehicle) (Table 20, i3 loop, conc 1.0 uM): 24.45 % of vehicle
Compound: 103: CXCR4 i3 loop compound (IIISKLSHSKGHQKRKALKT) [Compound 103]

AUC (% of vehicle) (Table 20, i3 loop, conc 1.0 uM): 36.4 % of vehicle
Max (% of vehicle) (Table 20, i3 loop, conc 1.0 uM): 56.39 % of vehicle
Compound: 104: CXCR4 i3 loop compound (IIISKLSHSKGHQKRKALKT) [Compound 104]

AUC (% of vehicle) (Table 21, i4 loop, conc 1.0 uM): 89.47 % of Vehicle
Max (% of vehicle) (Table 21, i4 loop, conc 1.0 uM): 83.94 % of Vehicle
Peak Test Comp. (Table 21, i4 loop, conc 1.0 uM): 25 nM
Compound: 108: CXCR4 i4 domain compound (GAKFKTSAQHALTSVSRGSSLKILSKGKRG) [Compound 108]

AUC (% of vehicle) (Table 21, i4 loop, conc 1.0 uM): 49.31 % of Vehicle
Max (% of vehicle) (Table 21, i4 loop, conc 1.0 uM): 49.84 % of Vehicle
Peak Test Comp. (Table 21, i4 loop, conc 1.0 uM): 0.2 nM
Compound: 109: CXCR4 i4 domain compound (GAKFKTSAQHALTSVSRGSSLKILSKGKRGGHSSVST) [Compound 109]

AUC (% of vehicle) (Table 21, i4 loop, conc 1.0 uM): 40.98 % of Vehicle
Max (% of vehicle) (Table 21, i4 loop, conc 1.0 uM): 42.08 % of Vehicle
Compound: 110: CXCR4 i4 domain compound (GAKFKTSAQHALTSVSRGSSLKILSKGKRGGHSCFH) [Compound 110]

AUC (% of vehicle) (Table 21, i4 loop, conc 1.0 uM): 34.22 % of Vehicle
Max (% of vehicle) (Table 21, i4 loop, conc 1.0 uM): 63.12 % of Vehicle
Compound: 114: CXCR4 i4 domain compound (GAKFKTSAQHALTSVSRGSSLKILSK) [Compound 114]

AUC (% of vehicle) (Table 21, i4 loop, conc 1.0 uM): 77.47 % of Vehicle
Max (% of vehicle) (Table 21, i4 loop, conc 1.0 uM): 92.11 % of Vehicle
Compound: 115: CXCR4 i4 domain compound (GAKFKTSAQHALTSVSRGSSLK) [Compound 115]

AUC (% of vehicle) (Table 21, i4 loop, conc 1.0 uM): 65.28 % of Vehicle
Max (% of vehicle) (Table 21, i4 loop, conc 1.0 uM): 80.48 % of Vehicle
Compound: 116: CXCR4 i4 domain compound (GAKFKTSAQHALTSVR) [Compound 116]

activity at 1 µM [2]: 54.8%
activity at 1 µM [3]: 76.1%
Compound: CCCCCCCCCCCCCCCCC(NC(=O)CCCC[C@@H]1SC[C@@H]2NC(=O)N[C@@H]21)C(=O)N[C@@H](CCSC)C(=O)NCC(=O)N[C@@H](Cc1ccc(O)cc1)C(=O)N[C@@H](CCC(N)=O)C(=O)N[C@@H](CCCCN)C(=O)N[C@@H](CCCCN)C(=O)N[C@@H](CC(C)C)C(=O)N[C@@H](CCCNC(=N)N)C(=O)N[C@@H](CO)C(=O)N[C@@H](CCSC)C(=O)N[C@H](C(=O)N[C@@H](CC(=O)O)C(N)=O)[C@@H](C)O (stereo partly drawn) [Compound 33] (Biotin-[ξGly(nC16H33)]MGYQKKLRSMTD-NH2)

activity at 1 µM [2]: 53%
activity at 1 µM [3]: 53.5%
Compound: CCCCCCCCCCCCCCCCC(NC(=O)CCCCCCCCCCCCC)C(=O)N[C@@H](CCSC)C(=O)NCC(=O)N[C@@H](Cc1ccc(O)cc1)C(=O)N[C@@H](CCC(N)=O)C(=O)N[C@@H](CCCCN)C(=O)N[C@@H](CCCCN)C(=O)N[C@@H](CC(C)C)C(=O)N[C@@H](CCCNC(=N)N)C(=O)N[C@@H](CO)C(=O)N[C@@H](CCSC)C(=O)N[C@H](C(=O)N[C@@H](CC(=O)O)C(=O)N[C@@H](CCCCN)C(=O)N[C@@H](Cc1ccc(O)cc1)C(=O)N[C@@H](CCCNC(=N)N)C(=O)N[C@H](C(N)=O)[C@@H](C)CC)[C@@H](C)O (stereo partly drawn) [Compound 48] (Myristoyl-[ξGly(nC16H33)]MGYQKKLRSMTDKYRI-NH2)

activity at 1 µM [2]: 50.9%
activity at 1 µM [3]: 62.7%
Compound: CCCCCCCCCCCCCCCC(=O)N[C@@H](CCSC)C(=O)NCC(=O)N[C@@H](Cc1ccc(O)cc1)C(=O)N[C@@H](CCC(N)=O)C(=O)N[C@@H](CCCCN)C(=O)N[C@@H](CCCCN)C(=O)N[C@@H](CC(C)C)C(=O)N[C@@H](CCCNC(=N)N)C(=O)N[C@@H](CO)C(=O)N[C@@H](CCSC)C(=O)N[C@H](C(=O)N[C@@H](CC(=O)O)C(=O)N[C@@H](CCCCN)C(=O)N[C@@H](Cc1ccc(O)cc1)C(=O)N[C@@H](CCCNC(=N)N)C(=O)N[C@H](C(N)=O)[C@@H](C)CC)[C@@H](C)O [Compound 49] (Palmitoyl-MGYQKKLRSMTDKYRI-NH2)

activity at 1 µM [2]: 51.6%
Compound: CCCCCCCCCCCCCCCCNC(=O)[C@H](CCCCN)NC(=O)[C@H](CC(=O)O)NC(=O)[C@@H](NC(=O)[C@H](CCSC)NC(=O)[C@H](CO)NC(=O)[C@H](CCCNC(=N)N)NC(=O)[C@H](CC(C)C)NC(=O)[C@H](CCCCN)NC(=O)[C@H](CCCCN)NC(=O)[C@H](CCC(N)=O)NC(=O)[C@H](Cc1ccc(O)cc1)NC(=O)CNC(=O)[C@H](CCSC)NC(C)=O)[C@@H](C)O [Compound 59] (Ac-MGYQKKLRSMTDK-NHhexadecyl)

activity at 1 µM [2]: 100%
activity at 1 µM [3]: 93.1%
Peak Test Comp. [1]: 25 nM
Peak Ratio (Table 18, i1 loop, drug conc 1.0 uM, peak test comp./peak control): 1
Compound: CCCCCCCCCCCCCCCC(=O)N[C@@H](CO)C(=O)NCC(=O)N[C@@H](Cc1ccc(O)cc1)C(=O)N[C@@H](CCC(N)=O)C(=O)N[C@@H](CCCCN)C(=O)N[C@@H](CCCCN)C(=O)N[C@@H](CC(C)C)C(=O)N[C@@H](CCCNC(=N)N)C(=O)N[C@@H](CO)C(=O)N[C@@H](CO)C(=O)N[C@H](C(=O)N[C@@H](CC(=O)O)C(N)=O)[C@@H](C)O [Compound 69] (Palmitoyl-SGYQKKLRSSTD-NH2)

activity at 1 µM [4]: 52.6%
activity at 1 µM [5]: 76.1%
Peak Test Compound (Table 20, i3 loop, conc 1.0 uM): 0.2 nM
Peak Ratio [6]: 0.2
Compound: CCCCCCCCCCCCCCCCC(NC(=O)CCCC[C@@H]1SC[C@@H]2NC(=O)N[C@@H]21)C(=O)N[C@@H](Cc1cnc[nH]1)C(=O)N[C@@H](CO)C(=O)N[C@@H](CCCCN)C(=O)NCC(=O)N[C@@H](Cc1cnc[nH]1)C(=O)N[C@@H](CCC(N)=O)C(=O)N[C@@H](CCCCN)C(=O)N[C@@H](CCCNC(=N)N)C(=O)N[C@@H](CCCCN)C(=O)N[C@@H](C)C(=O)N[C@@H](CC(C)C)C(=O)N[C@@H](CCCCN)C(N)=O (stereo partly drawn) [Compound 87] (Biotin-[ξGly(nC16H33)]HSKGHQKRKALK-NH2)

activity at 0.01 µM (Table 20, i3 loop, conc 0.01 uM, read-out: AUC (% of vehicle)): 158%
activity at 0.01 µM (Table 20, i3 loop, conc 0.01 uM, read-out: Max (% of vehicle)): 156%
activity at 0.03 µM (Table 20, i3 loop, conc 0.03 uM, read-out: AUC (% of vehicle)): 200%
activity at 0.03 µM (Table 20, i3 loop, conc 0.03 uM, read-out: Max (% of vehicle)): 198%
activity at 0.1 µM (Table 20, i3 loop, conc 0.1 uM, read-out: AUC (% of vehicle)): 174%
activity at 0.1 µM (Table 20, i3 loop, conc 0.1 uM, read-out: Max (% of vehicle)): 169%
activity at 0.3 µM (Table 20, i3 loop, conc 0.3 uM, read-out: AUC (% of vehicle)): 180%
activity at 0.3 µM (Table 20, i3 loop, conc 0.3 uM, read-out: Max (% of vehicle)): 165%
activity at 3 µM (Table 20, i3 loop, conc 3.0 uM, read-out: AUC (% of vehicle)): 184%
activity at 3 µM (Table 20, i3 loop, conc 3.0 uM, read-out: Max (% of vehicle)): 176%
Peak Test Compound (Table 20, i3 loop, conc 0.01 uM): 0.16 nM
Peak Ratio (Table 20, i3 loop, conc 0.01 uM, peak test compound/peak control): 0.2
Peak Test Compound (Table 20, i3 loop, conc 0.03 uM): 0.16 nM
Peak Ratio (Table 20, i3 loop, conc 0.03 uM, peak test compound/peak control): 0.2
Peak Test Compound (Table 20, i3 loop, conc 0.1 uM): 0.16 nM
Peak Ratio (Table 20, i3 loop, conc 0.1 uM, peak test compound/peak control): 0.2
Peak Test Compound (Table 20, i3 loop, conc 0.3 uM): 0.16 nM
Peak Ratio (Table 20, i3 loop, conc 0.3 uM, peak test compound/peak control): 0.2
Peak Test Compound (Table 20, i3 loop, conc 1.0 uM): 0.2 nM and 0.16 nM
Peak Ratio [6]: 0.2
Peak Test Compound (Table 20, i3 loop, conc 3.0 uM): 0.8 nM
Peak Ratio (Table 20, i3 loop, conc 3.0 uM, peak test compound/peak control): 1
Compound: CCCCCCCCCCCCCCCC(=O)N[C@@H](CCCCN)C(=O)N[C@@H](CC(C)C)C(=O)N[C@@H](CO)C(=O)N[C@@H](Cc1cnc[nH]1)C(=O)N[C@@H](CO)C(=O)N[C@@H](CCCCN)C(=O)NCC(=O)N[C@@H](Cc1cnc[nH]1)C(=O)N[C@@H](CCC(N)=O)C(=O)N[C@@H](CCCCN)C(=O)N[C@@H](CCCNC(=N)N)C(=O)N[C@@H](CCCCN)C(=O)N[C@@H](C)C(=O)N[C@@H](CC(C)C)C(=O)N[C@@H](CCCCN)C(N)=O [Compound 92] (Palmitoyl-KLSHSKGHQKRKALK-NH2)

activity at 1 µM [4]: 15.9%
activity at 1 µM [5]: 54.8%
Peak Test Compound (Table 20, i3 loop, conc 1.0 uM): 0.2 nM
Peak Ratio [6]: 0.2
Compound: CCCCCCCCCCCCCCCC(=O)N[C@@H](CCCCN)C(=O)N[C@@H](CC(C)C)C(=O)N[C@@H](CO)C(=O)N[C@@H](Cc1cnc[nH]1)C(=O)N[C@@H](CO)C(=O)N[C@@H](CCCCN)C(=O)NCC(=O)N[C@@H](Cc1cnc[nH]1)C(=O)N[C@@H](CCC(N)=O)C(=O)N[C@@H](CCCCN)C(=O)N[C@@H](CCCNC(=N)N)C(=O)N[C@@H](CCCCN)C(=O)N[C@@H](C)C(=O)N[C@@H](CC(C)C)C(N)=O [Compound 93] (Palmitoyl-KLSHSKGHQKRKAL-NH2)
